Experimental data: PMC6361841, “Repurposing of Drugs as Novel Influenza Inhibitors From Clinical Gene Expression Infection Signatures” (Frontiers in Immunology, 2019)
Structures can show the parent of a compound that is named as a salt. Where two headings read alike, the source gives them in different places.

Legend:
[1] = test system: A/Lyon/969/09 (H1N1)pdm09 virus; assay: microbe, parasite or virus in culture; assay type: cell-based, influenza A(H1N1)pdm09 virus
A/Texas/126/2016 (H3N2) = assay: Antiviral efficacy in A549 cells, H3N2 strain; assay type: cell-based, influenza virus
B/Massachusetts/2/2106 = assay: Antiviral efficacy in A549 cells, B strain; assay type: cell-based, influenza virus
A(H1N1)pdm09 virus = assay type: cell-based, influenza virus; settings: for Viral titer, Dilution #2: virus 10^5 TCID50/mL pre-incubated 1 h; for Viral titer, Dilution #2 / Viral titer, Dilution #1: diltiazem 9 µM, etilefrine 18 µM, oseltamivir 1 µM; for Viral titer, Dilution #1: virus 10^6 TCID50/mL pre-incubated 1 h; for Mean relative Viral production: virus pre-incubated 1 h, relative to PBS control
[2] = test system: influenza A/Quebec/144147/09 (H1N1)pdm09 virus; assay type: in vivo, C57BL/6N mice; settings: for Clinical benefit in terms of survival vs saline (placebo) group: mg/kg/day: oseltamivir 10, monensin 10, diltiazem 90, etilefrine 3, lanatoside C 100, prednisolone 5, flucytosine 240, felbinac 5, timolol 50; for Weight loss vs saline (placebo) group: oseltamivir 10, diltiazem 90, etilefrine 3 mg/kg/day
[3] = test system: influenza A/Quebec/144147/09 (H1N1)pdm09 virus; assay type: in vivo, C57BL/6N mice; settings: […]; for Survival: mg/kg/day: oseltamivir 10, monensin 10, diltiazem 90, etilefrine 3; for Weight loss: oseltamivir 10, monensin 10, diltiazem 90 mg/kg/day
[4] = test system: A/Lyon/969/09 (H1N1)pdm09 virus; assay: microbe, parasite or virus in culture; assay type: cell-based, influenza A(H1N1)pdm09 virus; settings: Influenza A virus, 6 h pre-treatment only, A549, Figure 2B
[5] = test system: influenza A/Lyon/969/09 (H1N1)pdm09 virus; assay type: cell-based
[6] = test system: MucilAir® human airway epithelium; assay type: cell-based
[7] = Influenza A virus, H1N1, 48 h, pre-treatment/treatment in vitro, A549, […], read-out: EC50
[8] = pre-treatment/treatment in vitro, A549, […], read-out: EC50
[9] = 24 h p.i., oseltamivir 0.1 µM, diltiazem 9 µM or both
[10] = 48 h p.i., oseltamivir 0.1 µM, diltiazem 9 µM or both
[11] = 96 h p.i., oseltamivir 0.1 µM, diltiazem 9 µM or both
[12] = oseltamivir 1 μM, diltiazem 90 μM

With CCN(CC)CCOC(=O)C(c1ccccc1)c1ccccc1 [Adiphenine] the EC50 [1, 7] was 6.29 nM.
N=C(N)NC(=O)c1nc(Cl)c(N)nc1N [Amiloride] showed an EC50 [1, 7] of 0.41 nM.
Compound O=c1cc(-c2ccc(O)cc2)oc2cc(O)cc(O)c12 [Apigenin] has an EC50 [1, 7] of 0.21 nM.
With CC1(C)S[C@@H]2[C@H](NC(=O)Cc3ccccc3)C(=O)N2[C@H]1C(=O)O [Benzathin Benzylpenicilline, Benzathine benzylpenicillin] the EC50 [1, 8] was 0.26 nM.
OC(CCN1CCCCC1)(c1ccccc1)C1CC2C=CC1C2 (centres unmarked) [Biperiden] showed an EC50 [1, 7] of 0.38 nM.
Compound O=NN(CCCl)C(=O)NCCCl [Carmustine] has an EC50 [1, 7] of 0.07 nM.
In the case of CN(C)CCN(Cc1ccc(Cl)cc1)c1ccccn1 [Choropyramine, Chloropyramine], the EC50 [1, 7] is reported as 0.07 nM.
CCCCCCC[N+](CC)(CC)CCCCc1ccc(Cl)cc1 [Clofilium tosylate] was tested, and the EC50 [1, 8] was 0.16 nM.
In the case of CCNCC(O)c1cccc(O)c1 (centres unmarked) [Etilefrine], the EC50 [1, 7] is reported as 0.34 nM, the “Relative Viral production” value (A/Texas/126/2016 (H3N2); dose CMAP) is reported as 1 % of mock-treated and the Viral titer (A/Texas/126/2016 (H3N2); dose CMAP) is reported as 3.63 log TCID50/ml. For the same compound, the “Relative Viral production” value (A/Texas/126/2016 (H3N2); dose CMAP/10) was 14.7 % of mock-treated, the Viral titer (A/Texas/126/2016 (H3N2); dose CMAP/10) was 4.8 log TCID50/ml and the “Relative Viral production” value (B/Massachusetts/2/2106; dose CMAP) was 7.3 % of mock-treated. The Viral titer (B/Massachusetts/2/2106; dose CMAP) was 3.97 log TCID50/ml, the “Relative Viral production” value (B/Massachusetts/2/2106; dose CMAP/10) was 15.0 % of mock-treated and the Viral titer (B/Massachusetts/2/2106; dose CMAP/10) was 4.3 log TCID50/ml. For the same compound, the “Effect of virus pre-incubation on final viral titers vs PBS-incubated controls” value (A(H1N1)pdm09 virus; pre-incubation before infection) was “did not affect final viral titers”, the “Viral titer, Dilution #2” value (A(H1N1)pdm09 virus) was 4.63 log TCID50/ml and the “Viral titer, Dilution #1” value (A(H1N1)pdm09 virus) was 5.30 log TCID50/ml. The “Mean relative Viral production” value (A(H1N1)pdm09 virus) was 100.0 % of mock-treated, the “Clinical benefit in terms of survival vs saline (placebo) group” value (“Clinical benefit … vs saline (placebo) group” below) [2] was “significantly improved survival” and the “Weight loss vs saline (placebo) group” value [2] was “significantly improved”. The “Reduction in lung viral titers (LVTs) on day 5 p.i.” value ([2]; mouse, in vivo) was “at least 1 log” and the Survival [3] was 50%.
With O=C(O)Cc1ccc(-c2ccccc2)cc1 [Felbinac] the EC50 [1, 7] was 34.4 nM and the “Clinical benefit … vs saline (placebo) group” value [2] was “no clinical benefit”.
With Nc1[nH]c(=O)ncc1F [Flucytosine] the EC50 [1, 7] was 2.02 nM and the “Clinical benefit … vs saline (placebo) group” value [2] was “no clinical benefit”.
With Nc1nc(=O)c2nc(CNc3ccc(C(=O)N[C@@H](CCC(=O)O)C(=O)O)cc3)cnc2[nH]1 [Folic acid] the EC50 [1, 7] was 0.22 nM.
Compound CC(=O)O[C@H]1C[C@@]2(C)[C@@H](C[C@@H](O)[C@H]3[C@@]4(C)CC[C@@H](O)[C@@H](C)[C@@H]4CC[C@@]32C)/C1=C(\CCC=C(C)C)C(=O)O [Fusidic acid] has an EC50 [1, 7] of 0.038 nM.
Work on O=c1c(-c2ccc(O)cc2)coc2cc(O)cc(O)c12 [Genistein] yielded an EC50 [1, 7] of 1.06 nM.
In the case of CNC(C)C1CCC(N)C(OC2C(N)CC(N)C(OC3OCC(C)(O)C(NC)C3O)C2O)O1 (centres unmarked) [Gentamycin, Gentamicin], the EC50 [1, 7] is reported as 0.039 nM.
CC(=O)O[C@H]1C[C@H](O[C@H]2[C@@H](O)C[C@H](O[C@H]3[C@@H](O)C[C@H](O[C@H]4CC[C@@]5(C)[C@H](CC[C@@H]6[C@@H]5C[C@@H](O)[C@]5(C)[C@@H](C7=CC(=O)OC7)CC[C@]65O)C4)O[C@@H]3C)O[C@@H]2C)O[C@H](C)[C@H]1O[C@@H]1O[C@H](CO)[C@@H](O)[C@H](O)[C@H]1O [Lanatoside C] was tested, and the “Clinical benefit … vs saline (placebo) group” value [2] was “no clinical benefit”.
For CC[C@@]1([C@@H]2O[C@@H]([C@H]3O[C@@](O)(CO)[C@H](C)C[C@@H]3C)C[C@@H]2C)CC[C@H]([C@]2(C)CC[C@]3(C[C@H](O)[C@@H](C)[C@@H]([C@@H](C)[C@@H](OC)[C@H](C)C(=O)O)O3)O2)O1 [Monensin], the EC50 [4] was 110 nM, the EC50 [1, 7] was 3.27 nM and the “Clinical benefit … vs saline (placebo) group” value [2] was “clinical improvement”. The Survival [3] was “completely prevented mortality” and the Weight loss [3] was “reduced weight loss”.
CCOC(=O)C1=C[C@@H](OC(CC)CC)[C@H](NC(C)=O)[C@@H](N)C1 [Oseltamivir] was tested, and the “Viral titer, Dilution #2” value (A(H1N1)pdm09 virus) was 4.30 log TCID50/ml, the “Viral titer, Dilution #1” value (A(H1N1)pdm09 virus) was 5.63 log TCID50/ml and the “Mean relative Viral production” value (A(H1N1)pdm09 virus) was 130.3 % of mock-treated. The “Clinical benefit … vs saline (placebo) group” value [2] was “clinical improvement”, the “Weight loss vs saline (placebo) group” value [2] was “clinical improvement” and the Survival [3] was “completely prevented mortality”. For the same compound, the “Mice rescued from death” value ([3]; oseltamivir 10 mg/kg/day, diltiazem 90 mg/kg/day) was 40%, the Weight loss [3] was “reduced weight loss” and the “Apical viral titer log TCID50/ml (CI95)” value [5, 9] was 6.02 (4.69 – 7.35) log TCID50/ml. The “Apical viral titer log TCID50/ml (CI95)” value [5, 10] was 8.61 (7.43 – 9.80) log TCID50/ml, the “Apical viral titer log TCID50/ml (CI95)” value ([5]; 72 h p.i., oseltamivir 0.1 µM, diltiazem 9 µM or both) was 8.30 (7.73 – 8.87) log TCID50/ml and the “Apical viral titer log TCID50/ml (CI95)” value [5, 11] was 7.80 (6.56 – 9.04) log TCID50/ml. The “Apical viral titer log TCID50/ml (CI95)” value ([5]; 96 h p.i., oseltamivir 1 µM, diltiazem 90 µM or both) was 7.09 (5.79 – 8.40) log TCID50/ml, the “Effect on viral replication vs untreated control” value ([5]; oseltamivir 0.1 μM, diltiazem 9 μM (CMAP) or both, from 5 h p.i., once daily 5 days) was “no significant advantage over the untreated control” and the “Reduction in apical viral titers at 48 h p.i. compared to the untreated control” value [5, 12] was > 3 log. The “Virus on the basolateral medium” value [5, 12] was “No virus was detected”, the “Delay of the peak of viral production” value ([5]; oseltamivir 1 μM, diltiazem 90 μM (10-fold CMAP)) was 24 h and the “Reduction in apical peak viral titers compared to the untreated control” value ([5]; oseltamivir 1 μM, diltiazem 90 μM or both, 48 h p.i. untreated vs. 72 h p.i. treated) was > 2 log. For the same compound, the “Δ TEER (CI95)” value [6, 9] was 8.98 (-81.72 – 99.68) Ohm/cm^2, the “Δ TEER (CI95)” value ([6]; 24 h p.i., oseltamivir 1 µM, diltiazem 90 µM or both) was -24.32 (-58.00 – 9.36) Ohm/cm^2 and the “Δ TEER (CI95)” value [6, 10] was 20.09 (-39.75 – 79.94) Ohm/cm^2. For the same compound, the “Δ TEER (CI95)” value ([6]; 48 h p.i., oseltamivir 1 µM, diltiazem 90 µM or both) was 7.26 (-85.73 – 100.3) Ohm/cm^2, the “Δ TEER (CI95)” value [6, 11] was -209.2 (-271.5 – -146.8) Ohm/cm^2 and the “TEER during the time-course of infection” value ([6]; oseltamivir 1 μM, diltiazem 90 μM or both) was “stabilized TEER”.
Work on CC(C)NCC(O)COc1cccc2[nH]ccc12 (centres unmarked) [Pindolol] yielded an EC50 [1, 7] of 0.79 nM.
Compound CNC(=C[N+](=O)[O-])NCCSCc1ccc(CN(C)C)o1 [Ranitidine] has an EC50 [4] of 1100 nM and an EC50 [1, 7] of 0.68 nM.
With NC(=O)c1ncn([C@@H]2O[C@H](CO)[C@@H](O)[C@H]2O)n1 [Ribavirin] the EC50 ([1]; Influenza A virus, H1N1, A549, 48 h) was 0.86 nM.
CC[C@H]1OC(=O)[C@H](C)[C@@H](O[C@H]2C[C@@](C)(OC)[C@@H](O)[C@H](C)O2)[C@H](C)[C@@H](O[C@@H]2O[C@H](C)C[C@H](N(C)C)[C@H]2O)[C@](C)(O)C[C@@H](C)/C(=N\OCOCCOC)[C@H](C)[C@@H](O)[C@]1(C)O [Roxythromycin, Roxithromycin] gave an EC50 [1, 7] of 0.14 nM.
Compound COc1cc(NS(=O)(=O)c2ccc(N)cc2)nc(OC)n1 [Sulfadimethoxine] has an EC50 [1, 7] of 0.69 nM.
COc1cc(NS(=O)(=O)c2ccc(N)cc2)ncn1 [Sulfamonomethoxine] was tested, and the EC50 [1, 7] was 0.28 nM.
CC(C)(C)NC[C@H](O)COc1nsnc1N1CCOCC1 [Timolol] was tested, and the “Clinical benefit … vs saline (placebo) group” value [2] was “no clinical benefit”.
c1ccc(CC2=NCCN2)cc1 [Tolazoline] was tested, and the EC50 [1, 7] was 0.93 nM.
With C[C@H](CCC(=O)O)[C@H]1CC[C@H]2[C@@H]3[C@@H](O)C[C@@H]4C[C@H](O)CC[C@]4(C)[C@H]3CC[C@]12C [Urseodeoxycholic acid, Ursodeoxycholic acid] the EC50 [1, 7] was 0.61 nM.
In the case of C[C@]12C=CC(=O)C=C1CC[C@@H]1[C@@H]2[C@@H](O)C[C@@]2(C)[C@H]1CC[C@]2(O)C(=O)CO [prednisolone], the “Clinical benefit … vs saline (placebo) group” value [2] is reported as “no clinical benefit”.
